Read-outs that look alike come from different tables or passages of the source.
How the values were obtained:
hCB1R [1] = molecular target: T1, hCB1R (Homo sapiens, UniProt P21554); assay: cell-based; assay type: cell-based
T1 construct: host or cells: CHO

hCB1R [2] = molecular target: T1, hCB1R; assay: cell-based; assay type: cell-based; remark: listed apart in the source
hCB2R = hCB2R (Homo sapiens, UniProt P34972); design: expressed in transfected cells; host or cells: Flp-In-293 (Invitrogen #R750-07), pcDNA5/FRT; conditions: hCB2R; for ΔLogR GIRK / ΔLogR GTPγS / ΔLogR pERK / ΔLogR β-AR / ΔLogR cAMP: reference CP55940; for RE GIRK / RE GTPγS / RE pERK / RE β-AR / RE cAMP: relative effectiveness
Human recombinant TRPV1 = molecular target: T2, Human recombinant TRPV1 (Homo sapiens, UniProt Q8NER1); assay: cell-based; assay type: cell-based
T2 construct: expressed in transfected cells; host or cells: HEK293 (TRPV1-HEK-293, gift from John Davis, GlaxoSmithKline)

Rat recombinant TRPV2 = molecular target: T3, Rat recombinant TRPV2 (Rattus norvegicus, UniProt Q9WUD2); assay: cell-based; assay type: cell-based
T3 construct: expressed in transfected cells; host or cells: HEK293 (plasmid a gift from HB Bradshaw, Indiana University)
T3 sequence (Q9WUD2 1-761): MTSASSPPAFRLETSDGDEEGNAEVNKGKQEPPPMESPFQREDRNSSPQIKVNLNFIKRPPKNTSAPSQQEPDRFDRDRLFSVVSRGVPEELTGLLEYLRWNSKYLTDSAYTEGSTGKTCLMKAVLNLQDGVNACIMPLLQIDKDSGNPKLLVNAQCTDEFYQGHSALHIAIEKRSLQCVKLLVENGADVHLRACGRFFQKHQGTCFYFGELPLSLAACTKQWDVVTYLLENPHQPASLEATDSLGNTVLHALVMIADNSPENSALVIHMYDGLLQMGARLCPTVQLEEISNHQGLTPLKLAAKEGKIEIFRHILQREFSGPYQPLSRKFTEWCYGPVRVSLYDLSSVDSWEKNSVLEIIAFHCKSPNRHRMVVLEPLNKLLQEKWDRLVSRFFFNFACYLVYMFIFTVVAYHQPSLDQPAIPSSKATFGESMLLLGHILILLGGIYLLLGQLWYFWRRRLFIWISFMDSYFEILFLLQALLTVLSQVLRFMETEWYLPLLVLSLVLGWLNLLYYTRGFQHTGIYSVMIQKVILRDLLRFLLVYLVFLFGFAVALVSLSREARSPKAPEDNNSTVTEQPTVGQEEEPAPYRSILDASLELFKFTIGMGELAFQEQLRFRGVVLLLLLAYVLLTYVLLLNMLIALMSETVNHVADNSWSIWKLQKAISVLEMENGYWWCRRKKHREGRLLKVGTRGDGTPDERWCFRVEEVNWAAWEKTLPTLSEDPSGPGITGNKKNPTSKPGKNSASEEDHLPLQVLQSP

A3 (h) = molecular target: T4, A3 (h) (Homo sapiens, UniProt P0DMS8); assay: CEREP panel; assay type: binding; conditions: 10 µM
T4 construct: CEREP
T4 sequence (P0DMS8 1-318): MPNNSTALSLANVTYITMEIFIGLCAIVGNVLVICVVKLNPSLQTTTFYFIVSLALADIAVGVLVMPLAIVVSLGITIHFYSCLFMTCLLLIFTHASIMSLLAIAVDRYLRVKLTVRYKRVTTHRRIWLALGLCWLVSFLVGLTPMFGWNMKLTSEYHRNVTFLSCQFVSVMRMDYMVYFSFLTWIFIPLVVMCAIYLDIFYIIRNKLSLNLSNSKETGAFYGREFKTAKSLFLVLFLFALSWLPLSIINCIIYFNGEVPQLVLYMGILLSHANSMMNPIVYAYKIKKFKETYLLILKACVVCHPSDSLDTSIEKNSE

T1 sequence (P21554 whole entry): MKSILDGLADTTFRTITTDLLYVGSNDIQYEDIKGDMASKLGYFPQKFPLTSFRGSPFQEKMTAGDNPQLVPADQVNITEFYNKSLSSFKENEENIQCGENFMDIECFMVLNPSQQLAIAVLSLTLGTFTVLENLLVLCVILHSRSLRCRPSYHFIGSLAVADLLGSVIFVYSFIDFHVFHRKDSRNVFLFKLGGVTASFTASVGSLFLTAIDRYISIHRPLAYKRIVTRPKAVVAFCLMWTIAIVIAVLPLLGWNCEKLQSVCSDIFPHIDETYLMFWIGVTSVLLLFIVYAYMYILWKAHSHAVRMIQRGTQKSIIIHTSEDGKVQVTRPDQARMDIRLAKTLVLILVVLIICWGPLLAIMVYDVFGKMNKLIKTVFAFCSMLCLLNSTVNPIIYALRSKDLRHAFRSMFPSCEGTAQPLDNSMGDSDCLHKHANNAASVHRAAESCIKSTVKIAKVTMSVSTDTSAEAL
Sequence of hCB2R (P34972 whole entry): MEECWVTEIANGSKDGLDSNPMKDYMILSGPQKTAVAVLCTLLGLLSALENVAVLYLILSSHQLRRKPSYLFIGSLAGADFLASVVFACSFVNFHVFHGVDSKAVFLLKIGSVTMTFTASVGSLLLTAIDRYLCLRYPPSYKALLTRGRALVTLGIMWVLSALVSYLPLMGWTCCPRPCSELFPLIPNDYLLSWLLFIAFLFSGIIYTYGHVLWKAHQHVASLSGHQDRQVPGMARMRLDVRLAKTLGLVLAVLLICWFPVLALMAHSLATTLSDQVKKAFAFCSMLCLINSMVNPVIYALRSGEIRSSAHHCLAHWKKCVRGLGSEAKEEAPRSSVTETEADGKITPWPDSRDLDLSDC
T2 sequence (Q8NER1 whole entry): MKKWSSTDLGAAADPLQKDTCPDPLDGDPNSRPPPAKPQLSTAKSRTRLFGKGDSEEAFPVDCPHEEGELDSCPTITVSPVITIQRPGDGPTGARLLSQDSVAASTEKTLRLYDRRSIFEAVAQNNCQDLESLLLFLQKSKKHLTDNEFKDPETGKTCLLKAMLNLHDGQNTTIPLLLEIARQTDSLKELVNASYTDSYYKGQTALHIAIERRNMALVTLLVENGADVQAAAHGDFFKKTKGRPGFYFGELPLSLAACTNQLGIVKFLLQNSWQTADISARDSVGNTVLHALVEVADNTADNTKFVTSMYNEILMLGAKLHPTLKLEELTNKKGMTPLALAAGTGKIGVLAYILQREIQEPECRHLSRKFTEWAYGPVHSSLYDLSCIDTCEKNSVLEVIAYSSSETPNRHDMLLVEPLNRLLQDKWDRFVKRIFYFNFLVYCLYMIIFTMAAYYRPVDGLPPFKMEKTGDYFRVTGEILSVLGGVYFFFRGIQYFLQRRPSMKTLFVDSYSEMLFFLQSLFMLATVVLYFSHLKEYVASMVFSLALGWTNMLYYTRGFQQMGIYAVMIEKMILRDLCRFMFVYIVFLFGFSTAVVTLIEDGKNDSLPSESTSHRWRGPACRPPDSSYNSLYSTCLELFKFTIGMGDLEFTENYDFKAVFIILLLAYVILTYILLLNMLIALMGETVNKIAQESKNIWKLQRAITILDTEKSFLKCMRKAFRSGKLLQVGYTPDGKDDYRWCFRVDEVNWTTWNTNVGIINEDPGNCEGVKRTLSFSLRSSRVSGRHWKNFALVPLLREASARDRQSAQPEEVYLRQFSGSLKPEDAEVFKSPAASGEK

SMILES | GIRK-GTPγS bias factor (BF) (hCB2R) | GIRK-GTPγS ΔΔlogR (hCB2R) | LogR GIRK (hCB2R) | LogR GTPγS (hCB2R) | LogR pERK (hCB2R) | LogR β-AR (hCB2R) | pERK-GIRK bias factor (BF) (hCB2R) | pERK-GIRK ΔΔlogR (hCB2R) | pERK-GTPγS bias factor (BF) (hCB2R) | pERK-GTPγS ΔΔlogR (hCB2R) | β-AR-GIRK bias factor (BF) (hCB2R) | β-AR-GIRK ΔΔlogR (hCB2R) | β-AR-GTPγS bias factor (BF) (hCB2R) | β-AR-GTPγS ΔΔlogR (hCB2R) | β-AR-pERK bias factor (BF) (hCB2R) | β-AR-pERK ΔΔlogR (hCB2R) | ΔLogR GIRK (hCB2R) | ΔLogR GTPγS (hCB2R) | ΔLogR pERK (hCB2R) | ΔLogR β-AR (hCB2R) | also measured
CN1CCCCC1Cn1cc(C(=O)c2cc([N+](=O)[O-])ccc2I)c2ccccc21 (racemic) [(rac)-AM1241] | 1.08 | 0.03 ± 0.46 | 5.52 | 5.9 | 8.67 | 7.95 | 95.72 | 1.98 ± 0.71 | 103.28 | 2.01 ± 0.8 | 62.37 | 1.8 ± 0.49 | 68.30 | 1.83 ± 0.61 | 0.65 | -0.19 ± 0.81 | -2.35 | -2.38 | -0.37 | -0.55 | Emax ± SEM pERK hCB1R (hCB1R [1]): 86 ± 3; pEC50 ± SEM pERK hCB1R (hCB1R [1]): 5.07 ± 0.05; Emax ± SEM GIRK hCB1R (hCB1R [2]): 36 ± 4; pEC50 ± SEM GIRK hCB1R (hCB1R [2]): < 5; RE GIRK (hCB2R): 0.004; RE GTPγS (hCB2R): 0.004; RE pERK (hCB2R): 0.43; RE β-AR (hCB2R): 0.28
CCCCC/C=C\C/C=C\C/C=C\C/C=C\CCCC(=O)OC(CO)CO [2-AG, 2-arachidonoyl glycerol] | 154.53 | 2.19 ± 0.44 | 6.40 | 4.63 | 6.37 | 5.9 | 0.06 | -1.2 ± 0.29 | 9.68 | 0.99 ± 0.5 | 0.07 | -1.14 ± 0.19 | 11.27 | 1.05 ± 0.45 | 1.16 | 0.07 ± 0.3 | -1.47 | -3.65 | -2.67 | -2.6 | Emax (hCB1R [1]; read-out: Emax ± SEM pERK hCB1R): 111 ± 10%; Emax (hCB1R [2]; AtT20, read-out: Emax ± SEM GIRK hCB1R): 100 ± 11%; GIRK-cAMP bias factor (BF) (hCB2R): 178.65; GIRK-cAMP ΔΔlogR (hCB2R): 2.25 ± 0.21; GTPγS-cAMP bias factor (BF) (hCB2R): 1.16; GTPγS-cAMP ΔΔlogR (hCB2R): 0.06 ± 0.46; LogR cAMP (hCB2R): 6.99; pERK-cAMP bias factor (BF) (hCB2R): 11.19; pERK-cAMP ΔΔlogR (hCB2R): 1.05 ± 0.31; β-AR-cAMP bias factor (BF) (hCB2R): 13.03; β-AR-cAMP ΔΔlogR (hCB2R): 1.12 ± 0.23; ΔLogR cAMP (hCB2R): -3.72; RE GIRK (hCB2R): 0.03; RE GTPγS (hCB2R): 0.0002; RE cAMP (hCB2R): 0.0002; RE pERK (hCB2R): 0.002; RE β-AR (hCB2R): 0.003
CN1CCCC[C@@H]1Cn1cc(C(=O)c2cc([N+](=O)[O-])ccc2I)c2ccccc21 [(R)-AM1241] | 0.04 | -1.39 | 5.48 | 7.3 | 8.12 | 7.21 | 29.32 | 1.47 ± 0.37 | 1.18 | 0.07 ± 0.55 | 12.13 | 1.08 ± 0.36 | 0.49 | -0.31 ± 0.54 | 0.41 | -0.38 ± 0.39 | -2.38 | -0.99 | -0.91 | -1.30 | Emax ± SEM pERK hCB1R (hCB1R [1]): 78 ± 12; pEC50 ± SEM pERK hCB1R (hCB1R [1]): 5.66 ± 0.19; pEC50 ± SEM GIRK hCB1R (hCB1R [2]): 5.00 ± 0.1; Emax ± SEM GIRK hCB1R (hCB1R [2]; normalized to CP55940): 51 ± 3%; TRPV1 Efficacy (% ionomycin 4μM) (Human recombinant TRPV1): 10.7%; IC50 (Human recombinant TRPV1; read-out: TRPV1 IC50 for antagonism or desensitization): > 50 µM; EC50 (Human recombinant TRPV1; read-out: TRPV1 Potency EC50): > 50 µM; TRPV2 Efficacy (% ionomycin 4μM) (Rat recombinant TRPV2): 14.5%; EC50 (Rat recombinant TRPV2; read-out: TRPV2 Potency EC50): 12 µM; IC50 (Rat recombinant TRPV2; vs LPC 3μM, read-out: TRPV2 IC50 for antagonism or desensitization): 35.5 µM; RE GIRK (hCB2R): 0.004; RE GTPγS (hCB2R): 0.10; RE pERK (hCB2R): 0.12; RE β-AR (hCB2R): 0.05
Cc1c(C(=O)NN2CCCCC2)nn(-c2ccc(Cl)cc2Cl)c1-c1ccc(I)cc1 [AM251] | – | – | – | – | – | – | – | – | – | – | – | – | – | – | – | – | – | – | – | – | TRPV2 Efficacy (% ionomycin 4μM) (Rat recombinant TRPV2): < 10%; % inhibition A3 (h) (A3 (h)): 93%
CCCCC/C=C\C/C=C\C/C=C\C/C=C\CCCC(=O)NCCO [Anandamide, N-arachidonoylethanolamine] | 2.57 | 0.41 ± 0.65 | 4.53 | 4.54 | 6.03 | 5.54 | 2.14 | 0.33 ± 0.43 | 5.50 | 0.74 ± 0.66 | 2.37 | 0.38 ± 0.37 | 6.10 | 0.79 ± 0.62 | 1.11 | 0.04 ± 0.39 | -3.33 | -3.74 | -3 ± 0.32 | -2.96 | GIRK-cAMP bias factor (BF) (hCB2R): 26.36; GIRK-cAMP ΔΔlogR (hCB2R): 1.42 ± 0.34; GTPγS-cAMP bias factor (BF) (hCB2R): 10.26; GTPγS-cAMP ΔΔlogR (hCB2R): 1.01 ± 0.41; LogR cAMP (hCB2R): 5.96; pERK-cAMP bias factor (BF) (hCB2R): 56.36; pERK-cAMP ΔΔlogR (hCB2R): 1.75 ± 0.37; β-AR-cAMP bias factor (BF) (hCB2R): 62.52; β-AR-cAMP ΔΔlogR (hCB2R): 1.80 ± 0.29; ΔLogR cAMP (hCB2R): -4.76; RE GIRK (hCB2R): 0.005; RE GTPγS (hCB2R): 0.0002; RE cAMP (hCB2R): 0.00002; RE pERK (hCB2R): 0.001; RE β-AR (hCB2R): 0.001
